Values quoted from earlier work, collected in patent US20080306069A1, “Pyrazole Derivatives for the Inhibition of CDK'S and GSK'S” (ASTEX THERAPEUTICS LIMITED, priority 2005, published 2008).

Test system: malignant cells from B-cell chronic lymphocytic leukemia (B-CLL)
Settings: in vitro

SMILES	apoptosis of malignant B-CLL cells
CC[C@H](CO)Nc1nc(NCc2ccccc2)c2ncn(C(C)C)c2n1 [CYC 202]	induce in vitro apoptosis
CN1CC[C@H](c2c(O)cc(O)c3c(=O)cc(-c4ccccc4Cl)oc23)[C@H](O)C1 [Flavopiridol, flavopiridol]	induce in vitro apoptosis
